Test results taken from patent EP1027361B1, “6,11-BRIDGED ERYTHROMYCIN DERIVATIVES” (Abbott Laboratories, priority 1997, dated 1999).

Legend:
Assay in all cases: in vitro antibacterial activity, agar dilution MIC
Assay type in all cases: cell-based
[1] = tested on: Enterococcus faecium ATCC 8043; details: organism code II, BHI agar, 35-37 °C, 20 to 24 hours
Description: (§1) Erythromycin A was used for this purpose.
(§2) After incubation, each plate was visually inspected.

[2] = tested on: Escherichia coli JUHL; details: organism code QQ, BHI agar, 35-37 °C, 20 to 24 hours
Description: as §1, §2

[3] = tested on: Escherichia coli SS; details: organism code RR, BHI agar, 35-37 °C, 20 to 24 hours
Description: as §1, §2

[4] = tested on: Haemophilis Influenzae DILL AMP R; details: organism code WW, BHI agar, 35-37 °C, 20 to 24 hours
Description: as §1, §2

[5] = tested on: Micrococcus luteus ATCC 4698; details: organism code PP, BHI agar, 35-37 °C, 20 to 24 hours
Description: as §1, §2

[6] = tested on: Micrococcus luteus ATCC 9341; details: organism code OO, BHI agar, 35-37 °C, 20 to 24 hours
Description: as §1, §2

[7] = tested on: Nocardia Asteroides ATCC9970; details: organism code VV, BHI agar, 35-37 °C, 20 to 24 hours
Description: as §1, §2

[8] = tested on: Staphylococcus aureus CMX 553; details: organism code FF, BHI agar, 35-37 °C, 20 to 24 hours
Description: as §1, §2

[9] = tested on: Staphylococcus aureus CMX 642A; details: organism code DD, BHI agar, 35-37 °C, 20 to 24 hours
Description: as §1, §2

[10] = tested on: Staphylococcus aureus NCTC10649M; details: organism code EE, BHI agar, 35-37 °C, 20 to 24 hours
Description: as §1, §2

[11] = tested on: Staphylococcus epidermidis 3519; details: organism code HH, BHI agar, 35-37 °C, 20 to 24 hours
Description: as §1, §2

[12] = tested on: Streptococcus Pheumoniae 5649; details: organism code ZZA, BHI agar, 35-37 °C, 20 to 24 hours
Description: as §1, §2

[13] = tested on: Streptococcus Pheumoniae GYR 1171; details: organism code YY, BHI agar, 35-37 °C, 20 to 24 hours
Description: as §1, §2

[14] = tested on: Staphylococcus aureus ATCC 6538P; set-up: unit not given here; details: organism code AA, BHI agar, 35-37 °C, 20 to 24 hours
Description: as §1, §2

[15] = tested on: Streptococcus Pheumoniae ATCC6303; set-up: unit not given here; details: organism code XX, BHI agar, 35-37 °C, 20 to 24 hours
Description: as §1, §2

[16] = tested on: Streptococcus agalactiae CMX 508; set-up: unit not given here; details: organism code KK, BHI agar, 35-37 °C, 20 to 24 hours
Description: as §1, §2

[17] = tested on: Streptococcus bovis A-5169; set-up: unit not given here; details: organism code JJ, BHI agar, 35-37 °C, 20 to 24 hours
Description: as §1, §2

[18] = tested on: Streptococcus pyogenes EES61; set-up: unit not given here; details: organism code LL, BHI agar, 35-37 °C, 20 to 24 hours
Description: as §1, §2

[19] = tested on: Candida albicans CCH 442; details: organism code TT, BHI agar, 35-37 °C, 20 to 24 hours
Description: (§3) Representative compounds of the present invention were assayed in vitro for antibacterial activity as follows: Twelve petri dishes containing successive aqueous dilutions of the test compound mixed with 10 mL of sterilized Brain Heart Infusion (BHI) agar (Difco 0418-01-5) were prepared. Each plate was inoculated with 1:100 (or 1:10 for slow-growing strains, such as Micrococcus and Streptococcus) dilutions of up to 32 different microorganisms, using a Steers replicator block. […] In addition, a control plate, using BHI agar containing no test compound, was prepared and incubated at the beginning and end of each test
(§4) An additional plate containing a compound having known susceptibility patterns for the organisms being tested and belonging to the same antibiotic class as the test compound was also prepared and incubated as a further control, as well as to provide test-to-test comparability.
(§5) After incubation, each plate was visually inspected. The minimum inhibitory concentration (MIC) was defined as the lowest concentration of drug yielding no growth, a slight haze, or sparsely isolated colonies on the inoculum spot as compared to the growth control.

[20] = tested on: Escherichia coli DC-2; details: organism code SS, BHI agar, 35-37 °C, 20 to 24 hours
Description: as §3, §4, §5

[21] = tested on: Staphylococcus aureus 1775; details: organism code GG, BHI agar, 35-37 °C, 20 to 24 hours
Description: as §3, §4, §5

[22] = tested on: Staphylococcus aureus A-5278; details: organism code CC, BHI agar, 35-37 °C, 20 to 24 hours
Description: as §3, §4, §5

[23] = tested on: Streptococcus pyogenes 930; details: organism code MM, BHI agar, 35-37 °C, 20 to 24 hours
Description: as §3, §4, §5

[24] = tested on: Streptococcus pyogenes PIU 2548; details: organism code NN, BHI agar, 35-37 °C, 20 to 24 hours
Description: as §3, §4, §5

[25] = tested on: Mycobacterium smegmatis ATCC 114; set-up: unit not given here; details: organism code UU, BHI agar, 35-37 °C, 20 to 24 hours
Description: as §3, §4, §5

[26] = tested on: Staphylococcus aureus A5177; set-up: unit not given here; details: organism code BB, BHI agar, 35-37 °C, 20 to 24 hours
Description: as §3, §4, §5

[27] = tested on: Streptococcus Pheumoniae 5979; details: organism code ZZ, BHI agar, 35-37 °C, 20 to 24 hours
Description: as §3, §4, §5

SMILES: CC[C@H]1OC(=O)[C@H](C)[C@@H](O[C@H]2C[C@@](C)(OC)[C@@H](O)[C@H](C)O2)[C@H](C)[C@@H](O[C@@H]2O[C@H](C)C[C@H](N(C)C)[C@H]2O)[C@](C)(O)C[C@@H](C)C(=O)[C@H](C)[C@@H](O)[C@]1(C)O [Ery. A, Erythromycin A, reference compound]
- minimum inhibitory concentration (MIC) [1]: 0.05
- minimum inhibitory concentration (MIC) [2]: >100
- minimum inhibitory concentration (MIC) [3]: 0.78
- minimum inhibitory concentration (MIC) [4]: 4
- minimum inhibitory concentration (MIC) [5]: 0.2
- minimum inhibitory concentration (MIC) [6]: 0.05
- minimum inhibitory concentration (MIC) [7]: 0.1
- minimum inhibitory concentration (MIC) [8]: 0.39
- minimum inhibitory concentration (MIC) [9]: 0.39
- minimum inhibitory concentration (MIC) [10]: 0.39
- minimum inhibitory concentration (MIC) [11]: 0.39
- minimum inhibitory concentration (MIC) [12]: 16
- minimum inhibitory concentration (MIC) [13]: 0.06
- minimum inhibitory concentration (MIC) [14]: 0.2
- minimum inhibitory concentration (MIC) [15]: 0.06
- minimum inhibitory concentration (MIC) [16]: 0.05
- minimum inhibitory concentration (MIC) [17]: 0.02
- minimum inhibitory concentration (MIC) [18]: 0.05
- minimum inhibitory concentration (MIC) [19]: >100
- minimum inhibitory concentration (MIC) [20]: >100
- minimum inhibitory concentration (MIC) [21]: >100
- minimum inhibitory concentration (MIC) [22]: >100
- minimum inhibitory concentration (MIC) [23]: >100
- minimum inhibitory concentration (MIC) [24]: 6.2
- minimum inhibitory concentration (MIC) [25]: 3.1
- minimum inhibitory concentration (MIC) [26]: 3.1

SMILES: CC[C@H]1OC(=O)[C@H](C)[C@@H](O[C@H]2C[C@@](C)(OC)[C@@H](O)[C@H](C)O2)[C@H](C)[C@@H](O[C@@H]2O[C@H](C)C[C@H](N(C)C)[C@H]2O)[C@@]2(C)C[C@@H](C)C(=O)[C@H](C)[C@H]3N(CCNC(=O)c4ccccc4C=CCO2)C(=O)O[C@]13C [Example 4, Compound of Formula (I), 2'-R^p is H, 4"-R^p is H, m is 2, A is NH, B is -C(O)-(CH2)q-, q is 0, D is 1,2-phenylene, E is-(CH2)r-CH=CH-, r is 0, n is 1]
- minimum inhibitory concentration (MIC) [1]: 0.39
- minimum inhibitory concentration (MIC) [2]: 100
- minimum inhibitory concentration (MIC) [3]: 6.2
- minimum inhibitory concentration (MIC) [4]: 16
- minimum inhibitory concentration (MIC) [5]: 1.56
- minimum inhibitory concentration (MIC) [6]: 0.2
- minimum inhibitory concentration (MIC) [7]: 0.2
- minimum inhibitory concentration (MIC) [8]: 1.56
- minimum inhibitory concentration (MIC) [9]: 1.56
- minimum inhibitory concentration (MIC) [11]: 1.56
- minimum inhibitory concentration (MIC) [12]: 16
- minimum inhibitory concentration (MIC) [13]: 0.03
- minimum inhibitory concentration (MIC) [14]: 1.56
- minimum inhibitory concentration (MIC) [15]: 0.03
- minimum inhibitory concentration (MIC) [16]: 0.2
- minimum inhibitory concentration (MIC) [17]: 0.2
- minimum inhibitory concentration (MIC) [18]: 0.39
- minimum inhibitory concentration (MIC) [19]: >100
- minimum inhibitory concentration (MIC) [20]: >100
- minimum inhibitory concentration (MIC) [21]: >100
- minimum inhibitory concentration (MIC) [22]: >100
- minimum inhibitory concentration (MIC) [27]: >128
- minimum inhibitory concentration (MIC) [23]: >100
- minimum inhibitory concentration (MIC) [24]: 12.5
- minimum inhibitory concentration (MIC) [25]: 3.1
- minimum inhibitory concentration (MIC) [26]: 25

SMILES: CC[C@H]1OC(=O)[C@H](C)[C@@H](O[C@H]2C[C@@](C)(OC)[C@@H](O)[C@H](C)O2)[C@H](C)[C@@H](O[C@@H]2O[C@H](C)C[C@H](N(C)C)[C@H]2O)[C@@]2(C)C[C@@H](C)C(=O)[C@H](C)[C@H]3N(CCNC(=O)Cc4ccccc4C=CCO2)C(=O)O[C@]13C [Example 6, Compound of Formula (I), 2'-R^p is H, 4"-R^p is H, m is 2, A is NH, B is -C(O)-(CH2)q-, q is 1, D is 1,2-phenylene, E is-(CH2)r-CH=CH-, r is 0, n is 1]
- minimum inhibitory concentration (MIC) [1]: 0.39
- minimum inhibitory concentration (MIC) [2]: 100
- minimum inhibitory concentration (MIC) [3]: 3.1
- minimum inhibitory concentration (MIC) [4]: 8
- minimum inhibitory concentration (MIC) [5]: 0.78
- minimum inhibitory concentration (MIC) [6]: 0.1
- minimum inhibitory concentration (MIC) [7]: 0.39
- minimum inhibitory concentration (MIC) [8]: 0.78
- minimum inhibitory concentration (MIC) [9]: 1.56
- minimum inhibitory concentration (MIC) [10]: 1.56
- minimum inhibitory concentration (MIC) [11]: 0.78
- minimum inhibitory concentration (MIC) [12]: 16
- minimum inhibitory concentration (MIC) [13]: 0.03
- minimum inhibitory concentration (MIC) [14]: 0.78
- minimum inhibitory concentration (MIC) [15]: 0.03
- minimum inhibitory concentration (MIC) [16]: 0.1
- minimum inhibitory concentration (MIC) [17]: 0.1
- minimum inhibitory concentration (MIC) [18]: 0.2
- minimum inhibitory concentration (MIC) [19]: >100
- minimum inhibitory concentration (MIC) [20]: >100
- minimum inhibitory concentration (MIC) [21]: >100
- minimum inhibitory concentration (MIC) [22]: >100
- minimum inhibitory concentration (MIC) [27]: >128
- minimum inhibitory concentration (MIC) [23]: >100
- minimum inhibitory concentration (MIC) [24]: 12.5
- minimum inhibitory concentration (MIC) [25]: 0.39
- minimum inhibitory concentration (MIC) [26]: 12.5

SMILES: CC[C@H]1OC(=O)[C@H](C)[C@@H](O[C@H]2C[C@@](C)(OC)[C@@H](O)[C@H](C)O2)[C@H](C)[C@@H](O[C@@H]2O[C@H](C)C[C@H](N(C)C)[C@H]2O)[C@@]2(C)C[C@@H](C)C(=O)[C@H](C)[C@H]3N(CCNCc4cccc(c4)C=CCO2)C(=O)O[C@]13C [Example 11, Compound of Formula (I), 2'-R^p is H, 4"-R^p is H, m is 2, A is NH, B is-(CH2)q-, q is 1, D is 1,3-phenylene, E is-(CH2)r-CH=CH-, r is 0, n is 1]
- minimum inhibitory concentration (MIC) [1]: 0.2
- minimum inhibitory concentration (MIC) [2]: >100
- minimum inhibitory concentration (MIC) [3]: 6.2
- minimum inhibitory concentration (MIC) [4]: 32
- minimum inhibitory concentration (MIC) [5]: 3.1
- minimum inhibitory concentration (MIC) [6]: 0.2
- minimum inhibitory concentration (MIC) [7]: 0.2
- minimum inhibitory concentration (MIC) [8]: 3.1
- minimum inhibitory concentration (MIC) [9]: 3.1
- minimum inhibitory concentration (MIC) [11]: 3.1
- minimum inhibitory concentration (MIC) [12]: 32
- minimum inhibitory concentration (MIC) [13]: 0.25
- minimum inhibitory concentration (MIC) [14]: 3.1
- minimum inhibitory concentration (MIC) [15]: 0.12
- minimum inhibitory concentration (MIC) [16]: 0.1
- minimum inhibitory concentration (MIC) [17]: 0.1
- minimum inhibitory concentration (MIC) [18]: 0.2
- minimum inhibitory concentration (MIC) [19]: >100
- minimum inhibitory concentration (MIC) [20]: >100
- minimum inhibitory concentration (MIC) [21]: >100
- minimum inhibitory concentration (MIC) [22]: >100
- minimum inhibitory concentration (MIC) [27]: >128
- minimum inhibitory concentration (MIC) [23]: >100
- minimum inhibitory concentration (MIC) [24]: 12.5
- minimum inhibitory concentration (MIC) [25]: 0.2
- minimum inhibitory concentration (MIC) [26]: 50
